Patent publication US20240309360A1, “TRANS-ACTIVATORS AND METHODS AND USE THEREOF” (THE GOVERNING COUNCIL OF THE UNIVERSITY OF TORONTO, priority 2021, published 2024)

Tested on: EGFP reporter (7×TetO array, basal CMV promoter) in HEK293T reporter cell line
Assay: TAD-seq pooled activation screen of 60-aa fragments fused to PYL1
Type: cell-based, human
Conditions: for Hit high GFP: high GFP population (top 1%); for logFC high GFP / logFC medium GFP: log 2 fold change of counts, 100 μM ABA 48 hours; for logFC high GFP: sorted high GFP cells (top 1%) vs unsorted cells; for logFC medium GFP: sorted medium GFP cells (top 2-5%) vs unsorted cells; for Hit medium GFP: medium GFP population (top 2-5%); call rule not given here
Excerpt: A fragment library of 75 activators identified in our screen was generated, using 60 amino-acid tiles every 20 aa such that every amino acid was represented by three different fragments (FIG. 3A). The pooled fragment library was fused to PYL1 and recruited to the same GFP reporter used in the original ORFeome screen (FIG. 3A). […] The GFP positive population was sorted into two independent replicates, and fragments in each population were quantified by sequencing. However, in contrast to the ORFeome screen, both high GFP cells (top 1%) and medium GFP cells (top 2-5%) were sorted to potentially identify transactivators of different strength.
Activation domain tiling library generation. A tiling library was generated from 75 proteins identified as activators in the ORFeome screen. Oligonucleotides containing a 5′ adapter […] (SEQ ID NO: 23) and a 3′ adapter […] (SEQ ID NO: 24) to generate a 5′ adapter ([…]) (SEQ ID NO: 11) and a 3′ adapter ([…]) (SEQ ID NO: 12) were synthesized as pooled libraries (Twist Biosciences). 6×50 μl PCR reactions were set up using NEBNext Ultra II Q5 master mix (New England Biolabs) with 5 nM oligos as template. PCR conditions were optimized to find the lowest cycle with a clean visible product at the expected 300 bp length. The thermocycling condition was an initial 30 s at 98° C., then 2 cycles of 98° C. for 10 s, 63° C. for 20 s, and 72° C. for 15 s, followed by 10 more cycles of 98° C. for 10 s and 72° C. for 30 s with a final extension at 72° C. for 5 min. Primers were designed to have Gateway compatible flanking sequences. The resulting libraries were gel extracted by QIAgen gel extraction kit after loading on a 2% TAE gel for 2 hrs at 60V and subsequently cloned into pDONR221 using 20 separate BP reactions in total of 5 μl reactions. The entry plasmid pool was transformed after an overnight reaction into DHSalpha competent E. coli and incubated overnight on LB agar plates containing kanamycin ([…]). Colonies were collected and plasmid DNA purified. 20 LR reactions were then set up as described in the previous section. Each reaction was transformed into NEB 10-beta chemically competent E. coli and grown on LB agar plates containing carbenicillin ([…]) overnight at 30° C. Colonies were counted to ensure >200-fold coverage at each step of cloning, pooled and maxiprepped.
Pooled activation screens. ORFeome and transactivation tiling libraries tagged at the C-terminus with PYL1 were packaged into lentiviral particles. A clonal EGFP reporter cell line stably co-expressing ABI-dCas9 and a gRNA targeting the promoter were transduced at low multiplicity of infection (MOI) with approximately 30% cell survival after puromycin (1 μg/mL) selection. Untransduced cells under the same condition were fully eliminated. Sufficient cells were transduced to maintain >500 fold coverage of the libraries. Recruitment was induced by treating cells with 100 μM abscisic acid (ABA, Sigma) for 48 hours. In parallel, a control batch of cells were treated with equal total volume of DMSO. Cells were then washed in PBS, treated with dissociation buffer (1 mM EDTA, 10 mM KCl, 150 mM NaCl, 5 mM sodium bicarbonate, 0.1% glucose) and resuspended in flow buffer (5 mM EDTA, 25 mM HEPES pH 7, 1% BSA, PBS). High GFP population for each library, top 1% for ORFeome and two bins of top 1% and the next 4% for the TAD screen, were sorted and their genomic DNA directly extracted using QIAmp DNA Blood Mini Kit (QIAGEN).
TAD sequencing. Performed nested PCR on the purified genomic DNA using primers targeting T7 promoter and PYL1 of the backbone vector in the first step creating a ˜470 bp product. Products of the first reaction were then pooled and amplified for an additional 10 steps using primers targeting outside the Gateway sites creating a ˜300 bp product. Libraries were quantified on Qubit dsDNA Broad Range kit and paired-end sequenced on an Illumina MIseq with a custom PAGE-purified R1 sequencing primer. […]

Substance: FAM90A1-19: 60-aa TAD-seq fragment of FAM90A1 (RQPPHSRPCLPTAQACTMSHHPAASHDGAQPLRVLFRRLENGRWSSSLLTAPSFHSPEKP; listed as Homo sapiens)
- Hit high GFP: hit
- logFC high GFP: 2.051
- logFC medium GFP: 1.557
- Hit medium GFP: hit

Substance: HOXA2-4: 60-aa TAD-seq fragment of HOXA2 (PGSHPRHGAGGRPKPSPAGSRGSPVPAGALQPPEYPWMKEKKAAKKTALLPAAAAAATAA; listed as Homo sapiens)
- logFC high GFP: 1.664
- logFC medium GFP: 1.595
- Hit medium GFP: hit

Substance: HOXA2-5: 60-aa TAD-seq fragment of HOXA2 (RGSPVPAGALQPPEYPWMKEKKAAKKTALLPAAAAAATAAATGPACLSHKESLEIADGSG; listed as Homo sapiens)
- logFC high GFP: 1.684
- logFC medium GFP: 2.311
- Hit medium GFP: hit

Substance: HOXA2-6: 60-aa TAD-seq fragment of HOXA2 (KKAAKKTALLPAAAAAATAAATGPACLSHKESLEIADGSGGGSRRLRTAYTNTQLLELEK; listed as Homo sapiens)
- logFC high GFP: 1.951
- logFC medium GFP: 1.738
- Hit medium GFP: hit

Substance: HSF1-20: 60-aa TAD-seq fragment of HSF1 (KNELSDHLDAMDSNLDNLQTMLSSHGFSVDTSALLDLFSPSVTVPDMSLPDLDSSLASIQ; listed as Homo sapiens)
- logFC high GFP: 0.6234
- logFC medium GFP: 0.7077
- Hit medium GFP: hit

Substance: HSF1-21: 60-aa TAD-seq fragment of HSF1 (MLSSHGFSVDTSALLDLFSPSVTVPDMSLPDLDSSLASIQELLSPQEPPRPPEAENSSPD; listed as Homo sapiens)
- logFC high GFP: 0.432
- logFC medium GFP: 0.8992
- Hit medium GFP: hit

Substance: HSF1-24: 60-aa TAD-seq fragment of HSF1 (SGKQLVHYTAQPLFLLDPGSVDTGSNDLPVLFELGEGSYFSEGDGFAEDPTISLLTGSEP; listed as Homo sapiens)
- logFC high GFP: 0.6763
- logFC medium GFP: 0.8092
- Hit medium GFP: hit

Substance: HSF1-25: 60-aa TAD-seq fragment of HSF1 (AQPLFLLDPGSVDTGSNDLPVLFELGEGSYFSEGDGFAEDPTISLLTGSEPPKAKDPTVS; listed as Homo sapiens)
- logFC high GFP: 0.7725
- logFC medium GFP: 1.153
- Hit medium GFP: hit

Substance: JAZF1-1: 60-aa TAD-seq fragment of JAZF1 (MTGIAAASFFSNTCRFGGCGLHFPTLADLIEHIEDNHIDTDPRVLEKQELQQPTYVALSY; listed as Homo sapiens)
- logFC high GFP: 0.2848
- logFC medium GFP: 0.6639
- Hit medium GFP: hit

Substance: KLF6-1: 60-aa TAD-seq fragment of KLF6 (MDVLPMCSIFQELQIVHETGYFSALPSLEEYWQQTCLELERYLQSEPCYVSASEIKFDSQ; listed as Homo sapiens)
- Hit high GFP: hit
- logFC high GFP: 5.453
- logFC medium GFP: 1.868
- Hit medium GFP: hit

Substance: KLF7-2: 60-aa TAD-seq fragment of KLF7 (YFSALPSLEETWQQTCLELERYLQTEPRRISETFGEDLDCFLHASPPPCIEESFRRLDPL; listed as Homo sapiens)
- logFC high GFP: 1.431
- logFC medium GFP: 1.165
- Hit medium GFP: hit

Substance: KLF15-6: 60-aa TAD-seq fragment of KLF15 (GPVAWGPWRRAAAPVKGEHFCLPEFPLGDPDDVPRPFQPTLEEIEEFLEENMEPGVKEVP; listed as Homo sapiens)
- Hit high GFP: hit
- logFC high GFP: 2.467
- logFC medium GFP: 1.202
- Hit medium GFP: hit

Substance: LIN9-25: 60-aa TAD-seq fragment of LIN9 (SRLTAILLQIKCLAEGGDLNSFEFKSLTDSLNDIKSTIDASNISCFQNNVEIHVAHIQSG; listed as Homo sapiens)
- Hit high GFP: hit
- logFC high GFP: 2.094
- logFC medium GFP: 1.08

Substance: MYCBP-1: 60-aa TAD-seq fragment of MYCBP (MAHYKAADSKREQFRRYLEKSGVLDTLTKVLVALYEEPEKPNSALDFLKHHLGAATPENP; listed as Homo sapiens)
- logFC high GFP: 1.017
- logFC medium GFP: 0.73
- Hit medium GFP: hit

Substance: MYCL1-1: 60-aa TAD-seq fragment of MYCL1 (MDYDSYQHYFYDYDCGEDFYRSTAPSEDIWKKFELVPSPPTSPPWGLGPGAGDPAPGIGP; listed as Homo sapiens)
- logFC high GFP: 1.137
- logFC medium GFP: 0.7968
- Hit medium GFP: hit

Substance: MYOD1-2: 60-aa TAD-seq fragment of MYOD1 (CSFATTDDFYDDPCFDSPDLRFFEDLDPRLMHVGALLKPEEHSHFPAAVHPAPGAREDEH; listed as Homo sapiens)
- logFC high GFP: 0.7025
- logFC medium GFP: 0.8486
- Hit medium GFP: hit

Substance: NEUROD1-6: 60-aa TAD-seq fragment of NEUROD1 (LRRMKANARERNRMHGLNAALDNLRKVVPCYSKTQKLSKIETLRLAKNYIWALSEILRSG; listed as Homo sapiens)
- logFC high GFP: 0.6708
- logFC medium GFP: 0.9533
- Hit medium GFP: hit

Substance: NEUROG3-5: 60-aa TAD-seq fragment of NEUROG3 (RRSRRKKANDRERNRMHNLNSALDALRGVLPTFPDDAKLTKIETLRFAHNYIWALTQTLR; listed as Homo sapiens)
- logFC high GFP: 0.06039
- logFC medium GFP: 0.6713
- Hit medium GFP: hit

Substance: NPAS4-31: 60-aa TAD-seq fragment of NPAS4 (DVPLVPEGLLTPEASPVKQSFFHYSEKEQNEIDRLIQQISQLAQGMDRPFSAEAGTGGLE; listed as Homo sapiens)
- logFC high GFP: 1.22
- logFC medium GFP: 0.8563
- Hit medium GFP: hit

Substance: NPAS4-34: 60-aa TAD-seq fragment of NPAS4 (PLGGLEPLDSNLSLSGAGPPVLSLDLKPWKCQELDFLADPDNMFLEETPVEDIFMDLSTP; listed as Homo sapiens)
- logFC high GFP: 0.946
- logFC medium GFP: 0.9186
- Hit medium GFP: hit

Substance: NPAS4-36: 60-aa TAD-seq fragment of NPAS4 (DNMFLEETPVEDIFMDLSTPDPSEEWGSGDPEAEGPGGAPSPCNNLSPEDHSFLEDLATY; listed as Homo sapiens)
- logFC high GFP: 0.671
- logFC medium GFP: 1.209
- Hit medium GFP: hit

Substance: NPAS4-37: 60-aa TAD-seq fragment of NPAS4 (DPSEEWGSGDPEAEGPGGAPSPCNNLSPEDHSFLEDLATYETAFETGVSAFPYDGFTDEL; listed as Homo sapiens)
- Hit high GFP: hit
- logFC high GFP: 1.645
- logFC medium GFP: 0.7019

Substance: NPAS4-39: 60-aa TAD-seq fragment of NPAS4 (CNNLSPEDHSFLEDLATYETAFETGVSAFPYDGFTDELHQLQSQVQDSFHEDGSGGEPTF; listed as Homo sapiens)
- logFC high GFP: 0.798
- logFC medium GFP: 0.7684
- Hit medium GFP: hit

Substance: RELB-2: 60-aa TAD-seq fragment of RELB (RRVARPPAAPELGALGSPDLSSLSLAVSRSTDELEIIDEYIKENGFGLDGGQPGPGEGLP; listed as Homo sapiens)
- Hit high GFP: hit
- logFC high GFP: 2.147
- logFC medium GFP: 1.711
- Hit medium GFP: hit

Substance: RELB-3: 60-aa TAD-seq fragment of RELB (SSLSLAVSRSTDELEIIDEYIKENGFGLDGGQPGPGEGLPRLVSRGAASLSTVTLGPVAP; listed as Homo sapiens)
- Hit high GFP: hit
- logFC high GFP: 1.768
- logFC medium GFP: 1.803
- Hit medium GFP: hit
